Tests used:
Assay type in all cases: in vivo
[1] = test system: Amaranthus retroflexus (AMARE); assay: Post-emergence herbicidal activity, spray at 100 ppm; conditions: % visual injury compared to treatment control 7 days after treatment
Procedure: (§1) Selected compounds of the invention were screened at 100 ppm concentration against Amaranthus retroflexus (AMARE), Setaria italica (SETIT), and Kochia/Bassia scoparia (KCHSC).
(§2) Accordingly, PPO susceptible weed seeds were sown in 5″×5″ pots by quadrant containing Miracle-Gro potting mix (Scotts Miracle-Gro Company, Marysville, OH, USA) and grown in a Conviron growth chamber with appropriate growth conditions (temperature of 26/22° C. with photoperiod 16/8 h light day/night and light intensity of 300 μmol m^−2 s^−1 supplemented by LED lamps). Relative humidity in the growth chamber was maintained at around 65%. Plants were grown until 2-4 leaf stage and thinned to 5-8 plants per quadrant per species.
(§3) Compounds were formulated in 25% Acetone, 1% Crop oil concentrate (COC-Agridex), 0.1% Tween-20, and 2.5% Ammonium sulphate (AMS). Three replicate pots were treated with each compound. Treatment consisting of the above formulation excluding active compound was applied as a treatment control (TC). Plants were treated with the test compound solution in a laboratory spray chamber fitted with 8003 flat fan nozzles calibrated to deliver 187-200 L ha^−1 at 269 kPa. Plants were placed back in the growth chamber and evaluated for % visual injury compared to TC 7 days after treatment (DAT). The data presented in Table 3 in which A represents a percentage control, where 100% control indicates complete inhibition of weed growth.

[2] = test system: Kochia/Bassia scoparia (KCHSC); assay: as above; conditions: % visual injury compared to treatment control 7 days after treatment
Procedure: as §1, §2, §3

Setaria italica (SETIT) = assay: as above; conditions: % visual injury compared to treatment control 7 days after treatment
Procedure: as §1, §2, §3

[3] = test system: Setaria Italica (Foxtail millet); assay: Leaf penetration and translocation with and without crop oil concentrate adjuvant (COC); conditions: for Phloem mobility COC / Xylem mobility COC / Phloem mobility No-COC / Xylem mobility No-COC: 1.5 mM, 3×2 μL droplets on leaf, seven days after treatment; for Phloem mobility COC / Xylem mobility COC: with 1% v/v COC; for Phloem mobility No-COC / Xylem mobility No-COC: without COC; for leaf translocation: compared to compounds 920-4 and 920-6
Procedure: Selected compounds of the invention, along with compounds 920-4 and 920-6 from Japanese Patent Application No. 06321920, were tested for leaf penetration, translocation, and herbicidal activity in a grass weed species when applied with or without an adjuvant to increase the compound cuticle penetration.
Four to five PPO susceptible Setarialtalica (Foxtail millet) seed (Ernst Conservation Seeds, Meadville, PA) were sown in each of the 1.5×1.5-inch 6 cell plug inserts containing Miracle-Gro™ potting mix (Scotts Miracle-Gro Company, Marysville, OH, USA) and grown in a Conviron growth chamber with appropriate growth conditions (temperature of 26/22° C. with photoperiod 16/8 h light day/night and light intensity of 300 μmol m^−2 s^−1 supplemented by LED lamps). Relative humidity in the growth chamber was maintained at around 65%. Plants were grown until 1-2 leaf stage (one expanded leaf and one emerging leaf) and thinned to single plant per cell.
Test compounds were formulated to a final concentration of 1.5 mM in 25% Acetone, 0.1% Tween-20 and 2.5% Ammonium sulphate (AMS) with or without the addition of 1% v/v Crop oil concentrate (COC, Agridex). A total of 6 μL was applied as 3×2 μL droplets on the adaxial surface of an emerged Setaria Italica leaf for each of the two compound solutions (with and without COC). Six replicate plants were treated with each compound. Treatment consisting of the above formulation excluding active compound was applied as a treatment control (TC). Plants were placed back in the growth chamber and, seven days after treatment, were evaluated for overall % visual injury compared to TC. Plants were also evaluated for rapid necrosis representative of PPO inhibition at the site of, acropetal to, and basipetal to the droplet application site to estimate the general, xylem, and phloem compound mobility, respectively. In general, compounds with necrosis only at the site of action were considered to be poorly mobile whereas necrosis in the emerging leaf indicates symplastic phloem movement and necrosis from leaf base to tip only on the applied leaf indicates apoplastic xylem movement.
The data are presented in Table 4 are relative to the TC treatment for which the plant and leaf injury percent is consider 0%. “A” represents a percentage leaf or plant injury between 80 and 100%; “B” represents a percentage leaf or plant injury of 20-80%; “C” represents a percentage control below 20%.

[4] = test system: Amaranthus retroflexus (AMARE), Setaria italica (SETIT), and Kochia/Bassia scoparia (KCHSC); assay: Post-emergence herbicidal activity against weed species, overall statement; conditions: concentration of 100 parts per million (PPM)
Procedure: as §1, §2, §3

Structure (SMILES)	Post-emergence % control (100 PPM) AMARE [1]	Post-emergence % control (100 PPM) KCHSC [2]	Post-emergence % control (100 PPM) SETIT (Setaria italica (SETIT))	Phloem mobility COC [3]	Xylem mobility COC [3]	Phloem mobility No-COC [3]	Xylem mobility No-COC [3]	leaf translocation [3]	herbicidal activity against weed species [4]
C#CCN1C(=O)C(F)(F)Oc2cc(F)c(-c3c(F)c(F)c(F)c(F)c3F)cc21 [Compound 2, 2,2,7-trifluoro-6-(perfluorophenyl)-4-(prop-2-yn-1-yl)-2H-benzo[b][1,4]oxazin-3(4H)-one]	98%	75%	58%	A (“A” represents a percentage leaf or plant injury between 80 and 100%)	A (“A” represents a percentage leaf or plant injury between 80 and 100%)	A (“A” represents a percentage leaf or plant injury between 80 and 100%)	A (“A” represents a percentage leaf or plant injury between 80 and 100%)	significant improved leaf translocation	excellent herbicidal activity
C#CCN1C(=O)C(F)(F)Oc2cc(F)c(-c3c(F)cc(F)c(F)c3F)cc21 [Compound 37, 2,2,7-trifluoro-4-(prop-2-yn-1-yl)-6-(2,3,4,6-tetrafluorophenyl)-2H-benzo[b][1,4]oxazin-3(4H)-one]	100%	92%	58%	A (“A” represents a percentage leaf or plant injury between 80 and 100%)	A (“A” represents a percentage leaf or plant injury between 80 and 100%)	A (“A” represents a percentage leaf or plant injury between 80 and 100%)	A (“A” represents a percentage leaf or plant injury between 80 and 100%)	significant improved leaf translocation	excellent herbicidal activity
C#CCN1C(=O)COc2cc(F)c(-c3c(F)cc(F)c(F)c3F)cc21 [Compound 52, 7-fluoro-4-(prop-2-yn-1-yl)-6-(2,3,4,6-tetrafluorophenyl)-2H-benzo[b][1,4]oxazin-3(4H)-one]	100%	93%	72%	A (“A” represents a percentage leaf or plant injury between 80 and 100%)	A (“A” represents a percentage leaf or plant injury between 80 and 100%)	A (“A” represents a percentage leaf or plant injury between 80 and 100%)	A (“A” represents a percentage leaf or plant injury between 80 and 100%)	significant improved leaf translocation	excellent herbicidal activity
C#CCN1C(=O)COc2cc(F)c(-c3c(Cl)cc(C(F)(F)F)cc3Cl)cc21 [Compound 920-4, reference compound]	89%	52%	38%	A (“A” represents a percentage leaf or plant injury between 80 and 100%)	A (“A” represents a percentage leaf or plant injury between 80 and 100%)	C (“C” represents a percentage control below 20%)	C (“C” represents a percentage control below 20%)	–	–
C#CCN1C(=O)COc2cc(F)c(-c3ccc(Cl)c(Cl)c3Cl)cc21 [Compound 920-6, reference compound]	85%	21%	18%	A (“A” represents a percentage leaf or plant injury between 80 and 100%)	A (“A” represents a percentage leaf or plant injury between 80 and 100%)	C (“C” represents a percentage control below 20%)	C (“C” represents a percentage control below 20%)	–	–

Source: patent publication US12637438B2, “Protoporphyrinogen oxidase inhibitors” (Enko Chem, Inc., priority 2021, dated 2026)
